This passage reports IC50 and Activity results from ChEMBL document CHEMBL4251651, “Synthesis and biological evaluation of 4-amino-5-cinnamoylthiazoles as chalcone-like anticancer agents” (Eur J Med Chem, 2018).

Values after ≈ are worked out from the molar mass of the structure shown.

For test [1], the system named is MCF7. As to the kind of experiment: Antiproliferative activity against human MCF7 cells after 48 hrs by MTT assay. The conditions noted are these: MCF7, 48 h. The test is classed as functional, cell-based. (In general: Tetrazolium dyes change colour on reduction, which living cells bring about.)
Test [2] has as its system HepG2. As to the kind of experiment: Antiproliferative activity against human HepG2 cells after 48 hrs by MTT assay. In kind it is functional, cell-based. The following applies: HepG2, 48 h.
The test system of test [3] is SW480. As to the kind of experiment: Antiproliferative activity against human SW480 cells after 48 hrs by MTT assay. The following applies: SW480, 48 h. The test is classed as functional, cell-based.
Test [4] relates to HepG2. Put plainly: Induction of apoptosis in human HepG2 cells assessed as viable cells at IC50 after 48 hrs by Annexin V-FITC/propidium iodide staining based flow cytometry (reference value: 62.4%). In kind it is functional. On the technique in general: In flow cytometry, cells or beads pass a laser one at a time.
The test system of test [5] is HepG2. As to the kind of experiment: Induction of apoptosis in human HepG2 cells assessed as late apoptotic cells at 1.2 times IC50 after 48 hrs by Annexin V-FITC/propidium iodide staining based flow cytometry (reference value: 18.1%). In kind it is functional.
Test [6] relates to HepG2. As to the kind of experiment: Induction of apoptosis in human HepG2 cells assessed as necrotic cells at IC50 after 48 hrs by Annexin V-FITC/propidium iodide staining based flow cytometry (reference value: 7.77%). The test is classed as functional.
The test system of test [7] is HepG2. As to the kind of experiment: Cell cycle arrest in human HepG2 cells assessed as accumulation at S phase at IC50 after 48 hrs by propidium iodide staining-based flow cytometry (reference value: 51.72%). The test is classed as functional.
For test [8], the system named is HepG2. Put plainly: Induction of apoptosis in human HepG2 cells assessed as necrotic cells at 1.2 times IC50 after 48 hrs by Annexin V-FITC/propidium iodide staining based flow cytometry (reference value: 7.77%). The test is classed as functional.
For test [9], the system named is HepG2. As to the kind of experiment: Induction of apoptosis in human HepG2 cells assessed as early apoptotic cells at 1.2 times IC50 after 48 hrs by Annexin V-FITC/propidium iodide staining based flow cytometry (reference value: 11.7%). The test is classed as functional.
For test [10], the system named is HepG2. Put plainly: Cell cycle arrest in human HepG2 cells assessed as accumulation at G2 phase at 1.2 times IC50 after 48 hrs by propidium iodide staining-based flow cytometry (reference value: 38.82%). In kind it is functional.
Test [11] concerns HepG2. As to the kind of experiment: Cell cycle arrest in human HepG2 cells assessed as accumulation at G1 phase at 1.2 times IC50 after 48 hrs by propidium iodide staining-based flow cytometry (reference value: 29.83%). The test is classed as functional.
The test system of test [12] is HepG2. Put plainly: Induction of apoptosis in human HepG2 cells assessed as viable cells at 1.2 times IC50 after 48 hrs by Annexin V-FITC/propidium iodide staining based flow cytometry (reference value: 62.4%). The test is classed as functional.
Test [13] has as its system HepG2. As to the kind of experiment: Cell cycle arrest in human HepG2 cells assessed as accumulation at G2 phase at IC50 after 48 hrs by propidium iodide staining-based flow cytometry (reference value: 38.82%). The test is classed as functional.
Test [14] has as its system HepG2. As to the kind of experiment: Induction of apoptosis in human HepG2 cells assessed as early apoptotic cells at IC50 after 48 hrs by Annexin V-FITC/propidium iodide staining based flow cytometry (reference value: 11.7%). The test is classed as functional.
Test [15] deals with HepG2. As to the kind of experiment: Induction of apoptosis in human HepG2 cells assessed as late apoptotic cells at IC50 after 48 hrs by Annexin V-FITC/propidium iodide staining based flow cytometry (reference value: 18.1%). In kind it is functional.
Test [16] concerns HepG2. As to the kind of experiment: Cell cycle arrest in human HepG2 cells assessed as accumulation at G1 phase at IC50 after 48 hrs by propidium iodide staining-based flow cytometry (reference value: 29.83%). In kind it is functional.
Test [17] deals with HepG2. Put plainly: Cell cycle arrest in human HepG2 cells assessed as accumulation at S phase at 1.2 times IC50 after 48 hrs by propidium iodide staining-based flow cytometry (reference value: 51.72%). The test is classed as functional.

As usually defined, the IC50 is the point on the concentration scale where inhibition reaches its midpoint. High values mean weaker potency, low ones greater potency. Take `Nc1nc(N2CCCCC2)sc1C(=O)/C=C/c1ccc(Br)cc1`: the IC50 worked out at 25.6 µg/mL (≈ 65.3 µM) in test [1], 17.4 µg/mL (≈ 44.4 µM) in test [2] and 31.6 µg/mL (≈ 80.5 µM) in [3].

With `Nc1nc(N2CCCC2)sc1C(=O)/C=C/c1ccc([N+](=O)[O-])cc1`, the IC50 in test [1] was 26.3 µg/mL (≈ 76.4 µM); in test [2] it was 23.5 µg/mL (≈ 68.2 µM); in test [3] it was 22.4 µg/mL (≈ 65 µM).

As for `Nc1nc(N2CCCCC2)sc1C(=O)/C=C/c1ccc([N+](=O)[O-])cc1`, the Activity in [4] was 46%; in [5], 47.1%; in [6], 24.2%; in test [7], 27.92%; in test [8], 24.2%; in [9] it was 2.53%. Moreover, the Activity was found to be 25.23% in test [10]; 54.18% in [11]; 26.1% in test [12]; 30.17% in test [13]; 2.1% in test [14]; 27.7% in [15]. Also, the Activity is reported as 47.1% in test [16] and 33.47% in test [17]. The IC50 in test [1] was 14.6 µg/mL (≈ 40.7 µM); in test [2], 15.4 µg/mL (≈ 43 µM); in [3], 25.6 µg/mL (≈ 71.4 µM).

Take `COc1cc([C@@H]2c3cc4c(cc3[C@@H](O[C@@H]3O[C@@H]5CO[C@@H](C)O[C@H]5[C@H](O)[C@H]3O)[C@H]3COC(=O)[C@H]23)OCO4)cc(OC)c1O` [ETOPOSIDE]: the Activity in test [4] was 37.1%; in test [6] it was 35.5%; in [14], 2.59%; in [15], 24.7%.

Consider `Nc1nc(N2CCOCC2)sc1C(=O)/C=C/c1ccc(Cl)cc1Cl`, for which the IC50 is 18.6 µg/mL (≈ 48.4 µM) in [1], 12.8 µg/mL (≈ 33.3 µM) in [2] and 33.2 µg/mL (≈ 86.4 µM) in [3].

Take `Nc1nc(N2CCCC2)sc1C(=O)/C=C/c1ccccc1`: the values for the IC50 in [1], in test [2] and in [3] were 21.7 µg/mL (≈ 72.5 µM), 29.6 µg/mL (≈ 98.9 µM) and 31.7 µg/mL (≈ 106 µM), respectively.

For `Nc1nc(N2CCOCC2)sc1C(=O)/C=C/c1ccccc1`, the IC50 in [1] came out at 34.7 µg/mL (≈ 110 µM); in test [2], 21.4 µg/mL (≈ 67.9 µM); in test [3], 30.5 µg/mL (≈ 96.7 µM).

As to `Nc1nc(N2CCCC2)sc1C(=O)/C=C/c1ccc(Br)cc1`, the half-inhibitory concentration (IC50) in test [1] amounted to 41.3 µg/mL (≈ 109 µM); in [2], 30 µg/mL (≈ 79.3 µM); in test [3], 15.8 µg/mL (≈ 41.8 µM).

Take `Nc1nc(N2CCCCC2)sc1C(=O)/C=C/c1ccc(Cl)cc1`: the Activity was determined as 44.3% in test [4]; 34.7% in test [5]; 18.5% in [6]; 28.24% in [7]; 17.2% in test [8]; 3.31% in [9]. Further, the Activity in test [10] was 37.65%; in [11], 48.58%; in test [12] it was 44.8%; in [13], 27.88%; in test [14], 2.84%; in test [15], 34.4%. Besides, the Activity in [16] is 44.47%; in test [17], 18.26%. Moreover, the values for the IC50 in test [1], in test [2] and in test [3] were 19.5 µg/mL (≈ 56.1 µM), 12 µg/mL (≈ 34.5 µM) and 29.4 µg/mL (≈ 84.5 µM), respectively.

On to `Nc1nc(N2CCCCC2)sc1C(=O)/C=C/c1ccccc1`, for which the concentration for half-maximal inhibition (IC50) worked out at 22.4 µg/mL (≈ 71.5 µM) in test [1], 16.6 µg/mL (≈ 53 µM) in test [2] and 28.1 µg/mL (≈ 89.7 µM) in test [3].

For `Nc1nc(N2CCOCC2)sc1C(=O)/C=C/c1ccc([N+](=O)[O-])cc1`, the values for the IC50 in test [1], in [2] and in test [3] were 40 µg/mL (≈ 111 µM), 27.6 µg/mL (≈ 76.6 µM) and 43.3 µg/mL (≈ 120 µM), respectively.

On to `Nc1nc(N2CCCC2)sc1C(=O)/C=C/c1ccc(Cl)cc1`, for which the IC50 was 24 µg/mL (≈ 71.9 µM) in [1], 27 µg/mL (≈ 80.9 µM) in test [2] and 19.9 µg/mL (≈ 59.6 µM) in test [3].

For the molecule `COc1ccccc1/C=C/C(=O)c1sc(N2CCCC2)nc1N`, the results for the IC50 in test [1], in test [2] and in [3] were above 50 µg/mL, 35.1 µg/mL (≈ 107 µM) and 17 µg/mL (≈ 51.6 µM), respectively.

For the molecule `Nc1nc(N2CCOCC2)sc1C(=O)/C=C/c1ccc(Cl)cc1`, the IC50 is above 50 µg/mL in [1], 35.8 µg/mL (≈ 102 µM) in [2] and 33.4 µg/mL (≈ 95.5 µM) in test [3].

On to `Nc1nc(N2CCCC2)sc1C(=O)/C=C/c1ccc(Cl)cc1Cl`, for which the Activity in test [4] was found to be 44.6%; in test [5], 44.3%; in test [6], 40.8%; in test [7] it was 14.64%; in test [8], 24.4%; in test [9], 7.12%. Also, the Activity in test [10] is listed as 68.37%; in [11], 27.04%; in test [12], 24.2%; in test [13], 64.84%; in test [14], 1.43%; in test [15] it was 13.2%. Further, the Activity in test [16] worked out at 22.09%; in test [17], 16.34%. Moreover, the IC50 came out at 12.6 µg/mL (≈ 34.2 µM) in test [1], 10.6 µg/mL (≈ 28.8 µM) in test [2] and 18.4 µg/mL (≈ 50 µM) in test [3].

Take `Nc1nc(N2CCCCC2)sc1C(=O)/C=C/c1ccc(Cl)cc1Cl`: the results for the IC50 in test [1], in [2] and in test [3] were 25.5 µg/mL (≈ 66.7 µM), 22.9 µg/mL (≈ 59.9 µM) and 36.8 µg/mL (≈ 96.3 µM), respectively.

For the molecule `Nc1nc(N2CCOCC2)sc1C(=O)/C=C/c1ccc(Br)cc1`, the IC50 was above 50 µg/mL in test [1], above 50 µg/mL in test [2] and 32.7 µg/mL (≈ 82.9 µM) in [3].
